According to patent US8524744B2, “Arylamine ketones, their preparation methods, the pharmaceutical composition containing them and their use” (Institute of Mataria Medica, Chinese Academy of Medical …, priority 2004, dated 2013):
Where a name gives a salt, the structure may show the parent alone.

Assays:
[1] = tested on: mouse ear edema; conditions: induced by arachidonic acid; cited from earlier work
[2] = tested on: polymorphonuclear leucocytes from rat pleural cavity; assay: release of β-glucuronidase by polymorphonuclear leucocytes from rat pleural cavity in vitro (PAF as irritant); format: cell-based
Procedure: 1% carrageenan was injected into the right pleural cavity of Wistar rat to induce polymorphonuclear leucocytes. The cells was suspended in Dulbecoo's buffer at the concentration of 2.5×10^6 cells·ml^1. The fluid containing the compound or solvent and 250 μl of cells suspension were added in test tube and incubated in 37° C. waterbath for 15 min. Then 2.5 μl of cytochalasin B (1×10^−3 mol·L^−1) was added and the reaction was continued for 5 min. Then 2.5 μl of PAF (1×10^−4 mol·L^−1) was added and for another 5 min. The test tubes were put into ice bath to stop the reaction. The supernatant was isolated and used as the β-glucuronidase release fluid. 25 μl of the enzyme fluid, 25 μl of phenolphthalein-glucuronic acid (2.5 mmol·L^−1) and 100 μl of acetic acid buffer (0.1 mol·L^−1) were added into each well of 96-well plate which was placed into incubater and kept at 37° C.3 for 18 hr. 150 μl of NaOH (0.3 mol·L^−1) was added in each well to cease the reaction and the optical density was read at 550 nm.

[3] = molecular target: T1, PAF receptors of rat polymorphonuclear leucocytes (Rattus norvegicus, UniProt P46002); assay: competitive binding of [3H]-PAF to its receptors of rat polymorphonuclear leucocytes; conditions: 37° C., 30 min, read-out: IC50, competition with [3H]-PAF binding
T1 construct: The suspension of rat polymorphonuclear leucocytes was prepared; endogenous in cells; host or cells: rat polymorphonuclear leucocytes (primary, whole-cell suspension)
Procedure: The suspension of rat polymorphonuclear leucocytes was prepared. 240 μl of cells suspension (2×10^6cells·ml^−1), 5 μl of [^3H](5 μmol·L^1) were added into each well. 5 μl of unlabeled PAF (5 μl mol·L^−1)was added into the well for the nonspecific binding. The series concentrations of compound were added into the well for the competitive binding and the corresponding volume of solvent was added into the wells for the total binding or the nonspecific binding. The reaction was kept in water bath at 37° C. for 30 min and stopped by ice bath. Reaction fluid was filtrated using the filter membrane which was rinsed by cold buffer to separate the free labeled ligand. The filter membrane was dried at 80° C. and placed into a vial for scintillation in which 5 ml of scintillation agent was poured. The radioactivity strength was measured by scintillation counter.

[4] = tested on: rat neutrophils; assay: chemotaxis of rat neutrophils in vitro; format: cell-based; conditions: Neutrophil, 4 hr, read-out: IC50, inhibition of chemotaxis
Procedure: The blood was collected from rat common carotid artery and anticoagulated. The neutrophils was isolated by 5% glucose solution and lymphocyte separating medium. 27 μl of irritant was added into the well at low part of the chemotaxis plate. The filter membrane was covered on the wells and the top part of the plate was assembled on the filter. 50 μl of cells suspension with various concentrations of compound or solvent was added into the well at top part of the plate. The plate was incubated at 37° C. for 4 hr. The filter was taken out, stained by hematoxylin and dehydrated. The cells migrated into the other side of the filter was counted by microscope.

[5] = tested on: intracellular calcium level of rat polymorphonuclear leucocytes; assay: increase of intracellular calcium level of rat polymorphonuclear leucocytes (Fura-2/AM, PAF); format: cell-based; conditions: Leucocyte, read-out: IC50, inhibition of the increase of intracellular calcium level
Procedure: 1% carrageenan was used to induce polymorphonuclear leucocytes from rat peritoneal cavity. The Fura-2/AM (final concentration: 3×10^−6 mol·L^−1) was added into cells suspension. 1 ml of cells suspension was added into the test tube with compound or solvent. The test tubes were placed in a shaking waterbath at 37° C. for 45 min. Then the test tubes were cooled at room temperature for 15 min. The cells were rinsed twice using HBSS to discarded Fura-2/AM remained in outside of the cells. The suspension of cells loaded with Fura-2/AM was added into the absorbent chamber of fluorospectrometer. The cells were kept to suspend at 37° C. and the fluorescence strength was measured at resting condition or after 20μl of PAF (1×10^−4 mol·L^−1), 20 μl of 10% Triton X-100 and 100 μl EGTA (500 mmol·L−1) was added, respectively. The changes of the intracellular level of calcium at the resting condition or after irritants were added was calculated by program for Ca^2+ measurement.

[6] = tested on: mouse ear edema induced by croton oil; assay: mouse ear edema induced by croton oil; format: in vivo; conditions: orally, 50 mg·kg^−1, Kunming mice
Procedure: Kuming mice (male, 18-22 g) were randomly divided into two groups (treatment and control) with 10 animals for each group. The animals were orally administrated with compounds or solvent, respectively. 1 hr later, 50 μl of 2% croton oil was smeared on the two sides of mouse left ear. After 4 hr the mice were sacrificed by cervical vertebra displacement. The two ears were cut off and the central sections were excised using a punch with a diameter of 8 mm and weighed. Edema was quantified as the weight difference between the two sections.

[7] = tested on: mouse paw swelling induced by carrageenan; assay: mouse paw swelling induced by carrageenan; format: in vivo; conditions: orally, 50 mg·kg^−1, Kunming mice
Procedure: Kunming mice (male, 18-22 g) were randomly divided into two groups (treatment and control) with 10 animals for each group. The animals were orally administrated with compounds or solvent, respectively. 1 hr later, 50 μl of 1% carrageenan was intracutaneously injected into the sole of right posterior foot. After 4 hr the animals were sacrificed by displacing cervical vertebra. The two paws were cut off at ankle joint and weighed. The swelling was evaluated by the difference of the weights of two paws.

[8] = tested on: cutaneous vascular permeability in mice induced by PAF; assay: increase of cutaneous vascular permeability in mice induced by PAF; format: in vivo, mouse; conditions: orally, 50 mg·kg^−1, Kunming mice
Procedure: Kunming mice (male, 18-22 g) were randomly divided into two groups (treatment and control) with 10 animals for each group. The animals were orally administrated with the compounds or solvent, respectively. 1 hr later, 0.25 ml of 1% evans blue dye was injected into the tail vein. After 10 min, 0.1 ml of PAF (1×10^−8 mol·L^−1) was intracutaneously injected into the dorsal skin shaved. 1 hr later, the animals were sacrificed by cervical vertebra displacement. The skin with blue spot was cut off. The evans blue dye was extracted by 0.8 ml of mixed solution of acetone and normal saline (7:3). The supernatant was transferred into the 96-well plate. The optical density was measured at 620 nm.

T1 sequence (P46002 whole entry): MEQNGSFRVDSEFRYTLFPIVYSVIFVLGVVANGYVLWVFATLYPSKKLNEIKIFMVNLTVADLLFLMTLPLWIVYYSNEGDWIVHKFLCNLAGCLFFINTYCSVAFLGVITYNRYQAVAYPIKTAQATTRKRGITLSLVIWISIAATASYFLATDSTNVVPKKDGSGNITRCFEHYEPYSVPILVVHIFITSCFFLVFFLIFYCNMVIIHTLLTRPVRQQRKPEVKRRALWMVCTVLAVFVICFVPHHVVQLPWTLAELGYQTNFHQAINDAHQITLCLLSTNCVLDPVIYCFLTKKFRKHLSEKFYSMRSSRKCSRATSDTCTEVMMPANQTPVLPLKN

Row | IC50 [3] [µM] | IC50 [4] [µM] | IC50 [5] [µM] | Compound | mouse ear edema [1] | Inhibition (%) of β-glucuronidase release ([2]; Dose 1 × 10^−5 mol · L^−1, Irritant 1 × 10^−6 mol · L^−1) [%] | IC50 ([2]; Leucocyte, rat polymorphonuclear leucocytes) [µM] | Inhibition (%) of mouse ear edema [6] [%] | Inhibition (%) of mouse paw swelling [7] [%] | Inhibition (%) of increase of cutaneous vascular permeability [8] [%]
1 | – | – | – | COc1cc([C@H]2CC[C@H](c3cc(OC)c(OC)c(OC)c3)O2)cc(CNC(=O)N(C)O)c1OCCSc1ccc(Cl)cc1 [LDP-392] | significantly inhibit | – | – | – | – | –
2 | 55 | 0.335 | 5.16 | O=C(C=Cc1ccc(C(F)(F)F)cc1)CCN1CCC(Cc2ccccc2)CC1 [Compound 20, 5-[(4-Benzyl)piperidyl]-1-(4-trifluoromethylphenyl)-1-penten-3-one hydrochloride] | – | 104.03 | 0.308 | 27.66 | 21.46 | 55.78
